Read-outs that look alike come from different tables or passages of the source.
Columns and labels:
[1] = Plasma protein binding, equilibrium dialysis (rat); assay type: in vitro ADME; conditions: pH 7.4, equilibrium dialysis 6 hours, read-out: PPB (rat), percent of unbound fraction
Procedure: Preparation of 100 mM sodium phosphate and 150 mM NaCl buffer (PBS). A basic solution was prepared by dissolving 14.2 g/L Na2HPO4 and 8.77 g/L NaCl in deionized water and the solution could be stored at 4° C. for up to 7 days. An acidic solution was prepared by dissolving 12.0 g/L NaH2PO4 and 8.77 g/L NaCl in deionized water and the solution could be stored at 4° C. for up to 7 days. The basic solution was titrated with the acidic solution to pH 7.4 and store at 4° C. for up to 7 days. pH was checked on the day of experiment and was adjusted if outside specification of 7.4±0.1.
Thawing of the frozen plasma (stored at −80° C.). Frozen plasma was thawed immediately at room temperature. The plasma was centrifuged at 3,220 g for 10 minutes to remove clots and supernatant was collected into a fresh tube. The pH of the plasma was checked and recorded. Note: a). Only use plasma that has been thawed no more than twice since arrival. b). Only use plasma within the range of pH 7 to pH 8.
Preparation of working solutions. The working solutions of test compound and control compound ketoconazole were prepared in DMSO at the concentration of 200 μM. And then 3 μL of working solutions was removed to mix with 597 μL of rat plasma to achieve a final concentration of 1 μM (0.5% DMSO). Plasma samples were vortexed thoroughly.
Preparation of dialysis membranes. The dialysis membranes were soaked in ultrapure water for 60 minutes to separate strips, then in 20% ethanol for 20 minutes, finally in dialysis buffer for 20 minutes.
Procedure for equilibrium dialysis. The dialysis apparatus was assembled according to the manufacturer's instruction. Each Cell was filled with 120 μL of spiked plasma sample and dialyzed against equal volume of dialysis buffer (PBS). The assay was performed in duplicate. The dialysis plate was sealed and incubated in an incubator at 37° C. with 5% CO2 at 100 rpm for 6 hours. At the end of incubation, seal was removed and 50 μL of samples from both buffer and plasma chambers were transferred to wells of a 96-well plate.
Procedure for sample preparation. […]

[2] = Plasma protein binding, equilibrium dialysis (human); assay type: in vitro ADME; conditions: pH 7.4, equilibrium dialysis 6 hours, read-out: PPB (human), percent of unbound fraction
[3] = Mouse pharmacokinetic studies; assay type: in vivo, male C57BL/6J mice; set-up: AUClast/D: unit not given here; conditions: PO 5 mg/kg; for AUC(0-inf) / AUC(0-t) / Cmax / Tmax / half-life / MRT inf: male, C57BL/6J; for MRT inf: read-out: MRTInf—obs
Procedure: (§1) The rat pharmacokinetics studies of exemplary compounds 03-3, 03-5, and 03-115 were conducted with male SD rats. These rats were typically about 6-8 weeks old, weighing 200 g to 300 g. Animals were fasted overnight and free access to food 4 hours after dosing. A required volume of vehicle was added to reach the target concentration of the test article and vehicle component to prepare for the dosing. The dosing vehicle was PEG400 or 30% PEG400 in saline for IV, or 0.5% methylcellulose in water for PO. For IV dosing, the animals were administered intravenously via tail vein. For PO dosing, the animals were administered via oral gavage. After dosing, blood sample was collected (˜0.2 mL per time point) through jugular vein or heart puncture. Blood of each sample was transferred into plastic micro centrifuge tubes containing EDTA-K2. Collection tubes with blood samples and anticoagulant were inverted several times for proper mixing of the tube contents and then placed on wet ice. The blood samples were centrifuged at 2000 g for 5 minutes at 4° C. to obtain plasma which was stored in a freezer at −75±15° C. prior to analysis. Samples were analyzed using LC-MS/MS. WinNonlin were used for pharmacokinetic calculations.
Mouse pharmacokinetics studies of exemplar compounds 03-3 and 03-5 were conducted substantially similarly to the rat pharmacokinetic studies, instead using male C57BL/6J mice. These mice were typically about 6-8 weeks old, weighing 20 g to 30 g. Animals were free access to food before dosing. Sample amount was ˜0.03 mL per time point and sample site was dorsal metatarsal or heart puncture.

[4] = Mouse CNS exposure measurement (plasma, CSF, brain); assay type: in vivo, male C57BL/6J mice; conditions: male, C57BL/6J; for concentration at 100 min: PO 5 mg/kg; for concentration at 60 min: in vivo, sc, 1 mg/kg, SC 1 mg/kg
Procedure: as §1, with “These” for “The rat pharmacokinetics studies of exemplary compounds 03-3, 03-5, and 03-115 were conducted with male SD rats. These”
For CSF sampling, after anesthesia, the foramen magnum was exposed, and a syringe was used with a venoclysis needle to sample the CSF. The CSF samples were stored in polypropylene tubes, then stored in a freezer at −75±15° C. prior to analysis.
For brain sampling, the rats were fully exsanguinated by using a risen of carbon dioxide prior to brain collection. Brain samples were then collected at adopted time point, quick frozen and kept at −75±15° C. All brain samples were weighted and homogenated with PBS by brain weight (g) to PBS volume (mL) ratio 1:3 before analysis. The actual concentration is the detected value multiplied by the dilution factor.
These mice were typically about 6-8 weeks old, weighing 20 g to 30 g. Animals were free access to food before dosing. Sample amount was ˜0.03 mL per time point and sample site was dorsal metatarsal or heart puncture.

| SMILES | fraction unbound at 6 h, 1 μM [1] | fraction unbound at 6 h, 1 μM [2] | AUClast/D [3] | AUC—% Extrap—obs [3] [%] | F [3] [%] | AUC(0-inf) ([3]; plasma) [ng·h/mL] | AUC(0-t) ([3]; plasma) [ng·h/mL] | Cmax ([3]; plasma) [ng/mL] | Tmax ([3]; plasma) [h] | half-life ([3]; plasma) [h] | MRT inf ([3]; plasma) [h] | other results |
| --- | --- | --- | --- | --- | --- | --- | --- | --- | --- | --- | --- | --- |
| CC(C)(C)NC[C@H](O)c1cccc(C(F)(F)F)n1 [Compound 03-3] | 0.9 | 0.89 | 774 | 0.958 | 85.1 | 3910 | 3870 | 1020 | 0.25 | 3.78 | 4.08 | concentration at 100 min ([4]; CSF, po, 5 mg/kg, read-out: Concentration, CSF): 302 ng/mL; concentration at 100 min ([4]; brain, po, 5 mg/kg, read-out: Concentration, Brain): 988 ng/g; concentration at 100 min ([4]; plasma, po, 5 mg/kg, read-out: Concentration, Plasma): 557 ng/mL |
| CC(C)(C)NC[C@H](O)c1cccc(C#N)n1 [Compound 03-5, (S)-6-(2-(tert-butylamino)-1-hydroxyethyl)picolinonitrile] | 1 | 1 | 1214 | 0.0845 | 163 | 6080 | 6070 | 1940 | 0.917 | 2.51 | 2.43 | concentration at 100 min ([4]; CSF, read-out: Concentration, CSF): 621 ng/mL; concentration at 100 min ([4]; brain, read-out: Concentration, Brain): 989 ng/g; concentration at 100 min ([4]; plasma, read-out: Concentration, Plasma): 1340 ng/mL |
| Cc1ncccc1[C@@H](O)CNC(C)(C)C [Compound 03-115] | 0.97 | 1 | – | – | 112 | – | – | – | – | – | – | AUC(0-inf) ([3]; in vivo): 3020 ng·h/mL; Cmax ([3]; in vivo): 1750 ng/mL; Tmax ([3]; in vivo): 0.5 h; MRT inf ([3]; in vivo): 1.8 h; concentration at 60 min ([4]; read-out: Concentration, Brain): 280 ng/g; concentration at 60 min ([4]; read-out: Concentration, CSF): 157 ng/mL; concentration at 60 min ([4]; read-out: Concentration, Plasma): 270 ng/mL |
